Assay results reported in paper PMC8793051 (ACS Omega, 2022).

Columns and labels:
[1] = tested on: oligo-2: d(CGATGTACATCG)2; assay: Fluorescence titration; assay type: binding; conditions: 20 °C, pH 7.2
OVCAR-4 = assay: NCI-60 SRB growth assay; assay type: cell-based, human
UO-31 = assay: NCI-60 SRB growth assay; assay type: cell-based, human
SN12C = assay: NCI-60 SRB growth assay; assay type: cell-based, human
HOP-92 = assay: NCI-60 SRB growth assay; assay type: cell-based, human
ACHN = assay: NCI-60 SRB growth assay; assay type: cell-based, human
786-0 = assay: NCI-60 SRB growth assay; assay type: cell-based, human
[2] = tested on: oligo-2: d(CGATGTACATCG)2; assay: UV thermal denaturation; assay type: binding
MDA-MB-231/ATCC = assay: NCI-60 SRB growth assay; assay type: cell-based, human
SK-MEL-28 = assay: NCI-60 SRB growth assay; assay type: cell-based, human
SK-MEL-5 = assay: NCI-60 SRB growth assay; assay type: cell-based, human
MALME-3M = assay: NCI-60 SRB growth assay; assay type: cell-based, human
U251 = assay: NCI-60 SRB growth assay; assay type: cell-based, human
HL-60(TB) = assay: cells; conditions: Homo sapiens
M14 = assay: NCI-60 SRB growth assay; assay type: cell-based, human
HCC-2998 = assay: NCI-60 SRB growth assay; assay type: cell-based, human
OVCAR-3 = assay: NCI-60 SRB growth assay; assay type: cell-based, human
CCRF-CEM = assay: NCI-60 SRB growth assay; assay type: cell-based, human
HEK = assay: MTT cytotoxicity assay; assay type: cell-based; conditions: Homo sapiens, HEK293, 48 h
MOLT-4 = assay: NCI-60 SRB growth assay; assay type: cell-based, human
K-562 = assay: NCI-60 SRB growth assay; assay type: cell-based, human
T-47D = assay: NCI-60 SRB growth assay; assay type: cell-based, human
IGROV1 = assay: NCI-60 SRB growth assay; assay type: cell-based, human
NCI-H460 = assay: NCI-60 SRB growth assay; assay type: cell-based, human
SR = assay: NCI-60 SRB growth assay; assay type: cell-based, human
NCI/ADR-RES = assay: NCI-60 SRB growth assay; assay type: cell-based, human
MDA-MB-435 = assay: NCI-60 SRB growth assay; assay type: cell-based, human
NCI-H23 = assay: NCI-60 SRB growth assay; assay type: cell-based, human
SF-268 = assay: NCI-60 SRB growth assay; assay type: cell-based, human
RXF 393 = assay: NCI-60 SRB growth assay; assay type: cell-based, human
NIH3T3 = assay: MTT cytotoxicity assay; assay type: cell-based; conditions: Mus musculus, NIH3T3, 48 h
SW-620 = assay: NCI-60 SRB growth assay; assay type: cell-based, human
SF-295 = assay: NCI-60 SRB growth assay; assay type: cell-based, human

In the case of CCCCN1CCN(c2ccc3[nH]c(-c4ccc5[nH]c(-c6ccc(OCC)c(OCC)c6)nc5c4)nc3c2)CC1 [12a, 5-(4-Butylpiperazin-1-yl)-2-(2-(3,4-diethoxyphenyl)-1H-benzo[d]imidazol-5-yl)-1H-benzo[d]imidazole], the “Ka binding affinity with oligo-2” value [1] is reported as 4 × 10^6 M^1, the GI50 (OVCAR-4; Homo sapiens, OVCAR-4) is reported as 1480 nM and the CC50 (OVCAR-4; Homo sapiens, OVCAR-4, read-out: LC50) is reported as 6950 nM. The TGI (OVCAR-4; OVCAR-4) was 3210 nM, the GI50 (UO-31; Homo sapiens, UO-31) was 2000 nM and the CC50 (UO-31; Homo sapiens, UO-31, read-out: LC50) was 43800 nM. It also gave a TGI (UO-31; UO-31) of 5800 nM, a GI50 (SN12C; Homo sapiens, SN12C) of 1030 nM and a TGI (SN12C; SN12c) of 2610 nM. It also gave a TGI (HOP-92; HOP-92) of 3170 nM, a GI50 (HOP-92; Homo sapiens, HOP-92) of 1230 nM and a CC50 (HOP-92; Homo sapiens, HOP-92, read-out: LC50) of 8150 nM. The TGI (ACHN) was 2120 nM, the GI50 (ACHN; Homo sapiens) was 920 nM and the CC50 (ACHN; Homo sapiens, read-out: LC50) was 4650 nM. For the same compound, the TGI (786-0; 786–0) was 2840 nM, the GI50 (786-0; Homo sapiens, 786-0) was 1410 nM and the CC50 (786-0; Homo sapiens, 786-0, read-out: LC50) was 5720 nM. It also gave a ΔTm ([2]; r = 0.5) of 1 °C, a Tm ([2]; r = 0.5, oligo 2.5 μM) of 57.9 °C and a Tm ([2]; r = 1) of 58.9 °C. It also gave a ΔTm ([2]; r = 1) of 2 °C, a Tm ([2]; r = 1.5) of 58.9 °C and a ΔTm ([2]; r = 1.5) of 2 °C. It also gave a Tm ([2]; r = 2.0) of 59.9 °C, a ΔTm ([2]; r = 2.0) of 3 °C and a GI50 (MDA-MB-231/ATCC; Homo sapiens, MDA-MB-231) of 1690 nM. The CC50 (MDA-MB-231/ATCC; Homo sapiens, MDA-MB-231, read-out: LC50) was 6380 nM, the TGI (MDA-MB-231/ATCC; MDA-MB-231) was 3280 nM and the GI50 (SK-MEL-28; Homo sapiens, SK-MEL-28) was 1010 nM. The CC50 (SK-MEL-28; Homo sapiens, SK-MEL-28, read-out: LC50) was 4860 nM, the TGI (SK-MEL-28; SK-MEL-28) was 2220 nM and the GI50 (SK-MEL-5; Homo sapiens, SK-MEL-5) was 1090 nM. The CC50 (SK-MEL-5; Homo sapiens, SK-MEL-5, read-out: LC50) was 9220 nM, the TGI (SK-MEL-5; SK-MEL-5) was 3160 nM and the GI50 (MALME-3M; Homo sapiens, Malme-3M) was 190 nM. It also gave a TGI (MALME-3M; MALME-3M) of 1180 nM, a GI50 (U251; Homo sapiens, U-251) of 1280 nM and a CC50 (U251; Homo sapiens, U-251, read-out: LC50) of 5650 nM. For the same compound, the TGI (U251; U251) was 2690 nM, the GI50 (HL-60(TB); HL-60) was 700 nM and the CC50 (HL-60(TB); HL-60, read-out: LC50) was 67900 nM. The GI50 (M14; Homo sapiens, M14) was 310 nM, the CC50 (M14; Homo sapiens, M14, read-out: LC50) was 4680 nM and the TGI (M14; M14) was 1550 nM. For the same compound, the TGI (HCC-2998; HCC-2998) was 3220 nM, the GI50 (HCC-2998; Homo sapiens, HCC 2998) was 1710 nM and the GI50 (OVCAR-3; Homo sapiens, OVCAR-3) was 350 nM. The CC50 (OVCAR-3; Homo sapiens, OVCAR-3, read-out: LC50) was 2920 nM, the TGI (OVCAR-3; OVCAR-3) was 850 nM and the TGI (CCRF-CEM) was 3060 nM. The GI50 (CCRF-CEM; Homo sapiens) was 530 nM, the CC50 (CCRF-CEM; Homo sapiens, read-out: LC50) was > 100000 nM and the IC50 (HEK) was 2700 nM. For the same compound, the GI50 (MOLT-4; Homo sapiens, MOLT-4) was 1220 nM, the CC50 (MOLT-4; Homo sapiens, MOLT-4, read-out: LC50) was 31600 nM and the TGI (MOLT-4; MOLT-4) was 3860 nM. It also gave a GI50 (K-562; Homo sapiens, K562) of 520 nM, a CC50 (K-562; Homo sapiens, K562, read-out: LC50) of 7530 nM and a TGI (K-562; K-562) of 2270 nM. The GI50 (T-47D; Homo sapiens, T47D) was 1360 nM, the CC50 (T-47D; Homo sapiens, T47D, read-out: LC50) was > 100000 nM and the TGI (T-47D; T-47D) was 7880 nM. It also gave a GI50 (IGROV1; Homo sapiens, IGROV-1) of 1150 nM, a TGI (IGROV1; IGROV1) of 2600 nM and a GI50 (NCI-H460; Homo sapiens, NCI-H460) of 530 nM. It also gave a CC50 (NCI-H460; Homo sapiens, NCI-H460, read-out: LC50) of 5310 nM, a TGI (NCI-H460; NCI–H460) of 1860 nM and a TGI (SR) of 1190 nM. For the same compound, the GI50 (SR; Homo sapiens) was 310 nM, the CC50 (SR; Homo sapiens, read-out: LC50) was > 100000 nM and the TGI (NCI/ADR-RES) was 100000 nM. For the same compound, the GI50 (NCI/ADR-RES; Homo sapiens) was 100000 nM, the CC50 (NCI/ADR-RES; Homo sapiens, read-out: LC50) was > 100000 nM and the GI50 (MDA-MB-435; Homo sapiens, MDA-MB-435) was 1090 nM. The CC50 (MDA-MB-435; Homo sapiens, MDA-MB-435, read-out: LC50) was 5240 nM, the TGI (MDA-MB-435; MDA-MB-435) was 2390 nM and the GI50 (NCI-H23; Homo sapiens, NCI-H23) was 780 nM. For the same compound, the TGI (NCI-H23; NCI–H23) was 2350 nM, the GI50 (SF-268; Homo sapiens, SF-268) was 2660 nM and the CC50 (SF-268; Homo sapiens, SF-268, read-out: LC50) was > 100000 nM. The TGI (SF-268; SF-268) was 22000 nM, the GI50 (RXF 393; Homo sapiens, RXF 393) was 1010 nM and the TGI (RXF 393; RXF393) was 2350 nM. The IC50 (NIH3T3) was 8200 nM, the GI50 (SW-620; Homo sapiens, SW-620) was 470 nM and the CC50 (SW-620; Homo sapiens, SW-620, read-out: LC50) was 5150 nM. The TGI (SW-620; SW620) was 1790 nM, the GI50 (SF-295; Homo sapiens, SF-295) was 700 nM and the TGI (SF-295; SF-265) was 2260 nM.
